Consider two compounds from article PMC3834928, “SNEDDS Containing Poorly Water Soluble Cinnarizine; Development and in Vitro Characterization of Dispersion, Digestion and Solubilization” (Pharmaceutics, 2012).

Values after ≈ are worked out from the molar mass of the structure shown.

The conditions of data set [1]: cited from earlier work.
For data set [2] the following is noted: cited from earlier work. This is another data set of the same source.
For data set [3] the following is noted: log POct/W; cited from earlier work.
Data set [4] in a line: Solubility of cinnarizine in SNEDDSs, excipients and buffer (excess drug, end-over-end rotation, HPLC). It counts as physicochemical. The procedure:
An excess of cinnarizine was added to the SNEDDSs, selected excipients (sesame oil and oleic acid) and 100 mM TRIS maleate buffer, pH 6.5. The resulting suspensions were placed in an end-over-end rotating device protected from light at 25 °C for the SNEDDSs and at 37 °C for the excipients and buffer; the temperatures were selected for storage purpose and for its physiological relevance, respectively. Samples were withdrawn at specified time points, i.e., 28, 50, and 72 h for the SNEDDSs, 22 h and 48 h for the excipients, and at 51 h and 75 h for the buffer. Samples were centrifuged at 15,000 rpm for 45 min (Biofuge 15, Hereaus-Sepatech, Oterode, Germany). Between two and three drops of supernatant were weighed in a 10 mL volumetric flask and diluted with ethanol. This solution was further diluted with mobile phase to an appropriate concentration. Samples from the buffer were diluted with mobile phase. Quantification of cinnarizine was performed as described in the analytical section. The determination of solubility was considered attained when samples from two consecutive time points varied by less than 5%. The solubilities were determined in triplicate.
(§1) The concentration of cinnarizine was determined using a HPLC method. A HPLC system (Hitachi, Merck, Darmstadt, Germany) equipped with a D-7000 interface, an L-7200 autosampler, a L-7100 pump, a L-7300 column oven (35 °C), and a L-7400 UV detector or a L-7480 fluorescence detector. Data was processed by using HPLC System Manager Version 4.0 from Merck (Darmstadt, Germany). Chromatographic separation was obtained using a Luna C18 150 × 4.6 mm, 5 µm, column and a C18 guard column (Phenomenex, Torrance, CA, USA). The mobile phase consisted of 50% (v/v) acetonitrile and 50% (v/v) 20 mM ammonium dihydrogen phosphate monobasic buffer, pH 4.5. The temperature of the column was maintained at 35 °C and the flow rate and injection volume were 1 mL/min and 25 µL, respectively. The UV detection was carried out at 253 nm and quantification was performed from peak areas using a six point linear standard curve ranging from 0.25–4 µg/mL.

On the set-up of data set [5]: method as in PMID 7616366. To be noted: dogs, n = 4, mean ± SEM; cited from earlier work.
Data set [6] in a line: Colloidal dispersion of SNEDDSs in FaSSGF pH 1.6 (USP II apparatus). It counts as physicochemical. To be noted: FaSSGF pH 1.6, 37 °C, during the experiment (60 min), all four SNEDDSs. The procedure: as §1
Colloidal dispersion studies were performed in 250 mL fasted-state, simulated gastric fluid (FaSSGF) at pH 1.6. […] A quantity of 1 g of each SNEDDS containing 25 mg cinnarizine was weighed on a watch glass, and the glass with formulation was gently slid down the vessel wall to the bottom of the dissolution vessel and thereby introduced into the dispersion medium. […]

On to `CCCCCCCC/C=C\CCCCCCCC(=O)O` [oleic acid], for which the pKa in water in data set [1] (in water) was 9.85. Further, the “apparent pKa in mixed bile acid/phospholipid micelles” value in data set [1] (incorporated into mixed bile acid/phospholipid micelles) is listed as 6.5.

`C(=C\c1ccccc1)/CN1CCN(C(c2ccccc2)c2ccccc2)CC1` [Cinnarizine, cinnarizine]: the “Cinnarizine solubility in oleic acid (previous study)” value in data set [2] (in oleic acid, 25 °C) is 237 mg/g. For the same compound, the “Solubility of cinnarizine in water at low pH” value in data set [2] (pH 1.3) is on record as 853 µg/mL. Also, the Log P (commonly a log measure of how a compound divides between an organic and an aqueous phase) in data set [3] was 5.77 [16]. Further, the pKa (commonly the pH at which an ionisable group is half protonated) in data set [1] is 1.95 [18]. The solubility – broadly, the concentration that dissolves in the medium under given conditions – in data set [4] (100 mM TRIS maleate buffer pH 6.5, 37 °C, n = 3, read-out: Aqueous solubility (37 °C)) worked out at 0.39 ± 0.1 µg/mL (≈ 1.06 µM). Moreover, the “Cinnarizine solubility in SNEDDS I” value in data set [4] (in SNEDDS I preconcentrate, 25 °C, mean ± SD (n = 3)) worked out at 67.4 ± 0.9 mg/g. For the same compound, the “Cinnarizine solubility in SNEDDS II” value in data set [4] (in SNEDDS II preconcentrate, 25 °C, mean ± SD (n = 3)) was found to be 58.8 ± 0.5 mg/g. The “Cinnarizine solubility in SNEDDS III” value in data set [4] (in SNEDDS III preconcentrate, 25 °C, mean ± SD (n = 3)) worked out at 36.4 ± 0.7 mg/g. Moreover, in data set [4] (in SNEDDS IV preconcentrate, 25 °C, mean ± SD (n = 3)), the “Cinnarizine solubility in SNEDDS IV” value stood at 28.3 ± 0.8 mg/g. The “Cinnarizine solubility in oleic acid” value in data set [4] (in oleic acid, 37 °C, mean ± SD (n = 3)) is on record as 335 ± 3 mg/g. For the same compound, the “Cinnarizine solubility in sesame oil” value in data set [4] (in sesame oil, 37 °C, mean ± SD (n = 3)) stood at 25.7 ± 0.4 mg/g. Further, in data set [5], the “Bioavailability from a conventional capsule” value is 0.8% ± 0.4% and the “Bioavailability from an aqueous suspension formulation” value is reported as 8% ± 4%. Also, in data set [6], the “Precipitation of cinnarizine during colloidal dispersion” value is listed as “not observed”.
